The results in this text go back to patent US8658363B2, “Cell, method, and assay kit for measuring level of aryl hydrocarbon receptor transcriptional activation” (priority 2009, dated 2014).

The assay addresses T1, Ah receptor (Rattus norvegicus, UniProt P41738).
T1 construct: pcDNA4/V5-His B was linked with the coding region of the rat Ah receptor gene; expressed in transfected cells
T1 sequence (P41738 10-853): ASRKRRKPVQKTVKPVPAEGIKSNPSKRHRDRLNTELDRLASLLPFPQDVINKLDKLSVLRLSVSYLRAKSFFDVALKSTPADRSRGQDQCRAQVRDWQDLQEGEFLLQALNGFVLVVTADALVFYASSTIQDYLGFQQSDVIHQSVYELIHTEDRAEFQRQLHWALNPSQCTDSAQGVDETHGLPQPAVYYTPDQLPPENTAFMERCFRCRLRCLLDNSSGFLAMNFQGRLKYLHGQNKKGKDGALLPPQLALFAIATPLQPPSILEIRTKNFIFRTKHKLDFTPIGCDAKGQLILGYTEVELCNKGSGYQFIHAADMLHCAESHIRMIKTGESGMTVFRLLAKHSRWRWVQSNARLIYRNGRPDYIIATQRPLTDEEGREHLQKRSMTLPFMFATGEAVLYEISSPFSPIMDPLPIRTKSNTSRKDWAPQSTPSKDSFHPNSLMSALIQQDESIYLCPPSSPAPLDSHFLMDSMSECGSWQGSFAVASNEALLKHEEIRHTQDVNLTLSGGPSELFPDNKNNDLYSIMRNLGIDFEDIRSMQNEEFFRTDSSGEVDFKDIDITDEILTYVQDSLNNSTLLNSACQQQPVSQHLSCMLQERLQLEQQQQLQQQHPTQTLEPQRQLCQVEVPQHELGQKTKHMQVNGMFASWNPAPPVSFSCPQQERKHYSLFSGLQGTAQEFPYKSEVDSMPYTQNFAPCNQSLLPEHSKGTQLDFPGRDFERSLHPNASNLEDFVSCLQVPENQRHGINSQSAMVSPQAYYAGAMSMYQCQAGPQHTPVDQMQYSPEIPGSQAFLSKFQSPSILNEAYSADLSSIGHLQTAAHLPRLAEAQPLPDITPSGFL
The assay is described as follows: Ah receptor transcriptional activation, luciferase reporter in recombinant N2a-SY1 cells. The settings on record: for N2a-SY1 (magnification of activation) [signal-to-noise ratio] / N2a-SY1 (LUC) compensated value: luciferase luminescence RLU divided by absorbance of β-galactosidase: 24 hours, N2a-SY1 cells. It is filed as cell-based. As for the experimental part:
The recombinant cells (N2a-SY1) produced in Example 4 were seeded on a 24-well plate with about 80,000 cells per well and then cultured in a […] medium of 10% serum for several hours to overnight.
Next, the medium of the recombinant cell cultured in the above manner was aspirated to remove it, and DF 1:1 mediums of 10% serum which contained a 2,3,7,8-TCDD in concentrations of 0, 0.1, 1, 10, 100 and 1000 pg/mL, respectively were each dispensed in each well with 1 mL per well to culture cells. The culturing of cells was continued, the medium was removed after 24 hours and the cells were washed once with PBS 1 mL per well. Then, 200 μL per well of a PicaGene Cell Culture Lysis Reagent Luβ (manufactured by Toyo B-Net Co., Ltd.) diluted five times was added to each well, which was then allowed to stand at room temperature for 10 minutes or more to dissolve, thereby obtaining a cell extract. The obtained cell extract was frozen-stored in a freezing chamber, this frozen-stored plate was taken out of the freezing chamber, and the cell extract was fused at room temperature. 10 μL of the fused cell extract was transferred to a black 96-well plate. Then, 100 μL per well of a PicaGene (trademark) LT210 luminescence substrate solution was dispensed in each well of the plate and mixed and then, the plate was set to a Mithras LB940 Microplate Reader (manufactured by Berthold Japan K.K.) to measure a luminescence amount continuously. Separately, 10 μL of the above cell extract was transferred to a transparent 96-well plate. 150 μL of a β-galactosidase substrate solution (ONPG substrate solution) was added to each well of the plate, which was incubated at room temperature for 5 minutes, and then, 50 μL of a reaction stop solution (aqueous […] sodium carbonate solution) was added to each well. Then, the plate was set to a micro-plate reader to measure absorbance of each well at 405 nm. Using a standard curve, the absorbance was converted into the amount of β-galactosidase (ng) in the protein extract. The results are shown by a bar graph in FIG. 4, and also in Table 1 showing each value (in the table, each value is a compensated value calculated by dividing the luminescence relative light units (RLU) of luciferase by the absorbance of β-galactosidase and bB/A means the magnification of activation [signal-to-noise ratio]).
The stable recombinant cells (N2a-SY1) produced in Example 4 were seeded on a 24-well plate with about 80,000 cells per well and cultured in a DF 1:1 medium of 10% serum for several hours to overnight.
Next, the medium of the recombinant cell cultured in the above manner was aspirated to remove it, and DF 1:1 mediums of 10% serum which contained PCB126 at concentrations of 0, 0.2, 2, 20, 200, 2000, and 20000 pg/mL respectively were dispensed in each well with 1 mL per well to culture cells. The culturing of cells was continued, the medium was removed after 24 hours and the cells were washed once with PBS 1 mL per well. Then, 200 μL per well of a PicaGene Cell Culture Lysis Reagent Luβ (manufactured by Toyo B-Net Co., Ltd.) diluted five times was added to each well, which was then allowed to stand at room temperature for 10 minutes or more to dissolve, thereby obtaining a cell extract. The obtained cell extract was frozen-stored in a freezing chamber, this frozen-stored plate was taken out of the freezing chamber, and the cell extract was fused at room temperature. 10 μL of the fused cell extract was transferred to a black 96-well plate. Then, 100 μL per well of a PicaGene (trademark) LT210 luminescence substrate solution was dispensed in each well of the plate and mixed and then, the plate was set to a Mithras LB940 Microplate Reader (manufactured by Berthold Japan K.K.) to measure a luminescence amount continuously. Separately, 10 μL of the above cell extract was transferred to a transparent 96-well plate. […]
(In general: Reporter assays use an easily measured gene product as a stand-in for the process of interest.)

For `Clc1cc2c(cc1Cl)Oc1cc(Cl)c(Cl)cc1O2` [2,3,7,8-TCDD], the “N2a-SY1 (magnification of activation) [signal-to-noise ratio]” value (shortened to “N2a-SY1 … [signal-to-noise ratio]”) stood at 1 (2,3,7,8-TCDD 0.01 pg/ml vs 0 pg/ml); 1.24 (2,3,7,8-TCDD 0.1 pg/ml vs 0 pg/ml); 1.34 (2,3,7,8-TCDD 1 pg/ml vs 0 pg/ml); 3.43 (2,3,7,8-TCDD 10 pg/ml vs 0 pg/ml); 4.88 (2,3,7,8-TCDD 100 pg/ml vs 0 pg/ml); 5.22 (2,3,7,8-TCDD 1000 pg/ml vs 0 pg/ml). For the same compound, the “N2a-SY1 (LUC) compensated value: luciferase luminescence RLU divided by absorbance of β-galactosidase” value runs as follows: (2,3,7,8-TCDD 0.01 pg/ml) 1187.8; (2,3,7,8-TCDD 0.1 pg/ml) 1451.5; (2,3,7,8-TCDD 1 pg/ml) 1577.6; (2,3,7,8-TCDD 10 pg/ml) 4029.7; (2,3,7,8-TCDD 100 pg/ml) 5718.5; (2,3,7,8-TCDD 1000 pg/ml) 6132.5. The “concentration in a sample that may be detected (Ah receptor transcriptional activation)” value (recombinant cell of the embodiment) worked out at 0.1 pg/mL.

For `Clc1ccc(-c2cc(Cl)c(Cl)c(Cl)c2)cc1Cl` [PCB126], the “N2a-SY1 … [signal-to-noise ratio]” value by setting is: (PCB126 0.2 pg/ml vs 0 pg/ml) 0.91; (PCB126 2 pg/ml vs 0 pg/ml) 1.15; (PCB126 20 pg/ml vs 0 pg/ml) 1.92; (PCB126 200 pg/ml vs 0 pg/ml) 2.74; (PCB126 2000 pg/ml vs 0 pg/ml) 3.08; (PCB126 20000 pg/ml vs 0 pg/ml) 3.02. Moreover, the “N2a-SY1 … [signal-to-noise ratio]” value (PCB126 200000 pg/ml vs 0 pg/ml) was 3.02. Also, the “N2a-SY1 (LUC) compensated value: luciferase luminescence RLU divided by absorbance of β-galactosidase” value by setting is: (PCB126 0.2 pg/ml) 1882.6; (PCB126 2 pg/ml) 2388; (PCB126 20 pg/ml) 3991; (PCB126 200 pg/ml) 5685.8; (PCB126 2000 pg/ml) 6401.6; (PCB126 20000 pg/ml) 6264.8. Moreover, under “PCB126 200000 pg/ml”, the “N2a-SY1 (LUC) compensated value: luciferase luminescence RLU divided by absorbance of β-galactosidase” value is reported as 6268.9.
